Experimental data published in paper PMC13576449, “Small-Molecule Activators of PRMT1: Discovery, SAR Analyses, and Proapoptotic Effects in Pancreatic Cancer Cells” (Journal of Medicinal Chemistry, 2026).

Key:
Assay type in all cases: biochemical
[1] = target: T1, FLAG-tagged PRMT3 (Homo sapiens, UniProt O60678); experiment: Fluorescence-based in vitro PRMT assay (F-PRMT assay), PRMT3; conditions: for Experimental result (PRMT3): vs solvent control = 100%
T1 construct: The complete ORFs of human PRMT3 and PRMT6 were inserted; made in house; host or cells: Sf9 insect cells (baculovirus)
T1 sequence (O60678 whole entry): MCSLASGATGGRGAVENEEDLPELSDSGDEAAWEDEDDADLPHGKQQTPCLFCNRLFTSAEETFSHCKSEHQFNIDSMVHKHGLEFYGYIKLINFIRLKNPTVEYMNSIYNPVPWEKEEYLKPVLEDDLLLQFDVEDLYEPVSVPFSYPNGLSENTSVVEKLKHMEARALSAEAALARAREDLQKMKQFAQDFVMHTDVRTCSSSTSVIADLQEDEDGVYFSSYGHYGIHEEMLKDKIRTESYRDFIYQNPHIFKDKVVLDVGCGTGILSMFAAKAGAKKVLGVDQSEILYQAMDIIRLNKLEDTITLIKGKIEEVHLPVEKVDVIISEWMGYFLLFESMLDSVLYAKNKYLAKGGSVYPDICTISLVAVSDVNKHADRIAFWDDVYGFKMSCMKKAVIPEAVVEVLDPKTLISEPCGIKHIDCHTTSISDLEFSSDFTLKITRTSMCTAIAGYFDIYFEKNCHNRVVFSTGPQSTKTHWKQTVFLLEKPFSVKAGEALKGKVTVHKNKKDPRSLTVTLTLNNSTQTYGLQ
Source text: (§1) To evaluate the effects of the selected candidate molecules on the catalytic activity of type I enzymes, we employed a quantitative fluorescence-based in vitro PRMT activity (F-PRMT) assay using recombinant FLAG-tagged PRMT proteins expressed and affinity-purified from baculovirus-infected Sf9 cells (SI Figure S1, SI Figure S2A).
(§2) Human cell lines (PaTu8988T, PANC-1) were obtained from ATCC (American Type Culture Collection) and cultured in DMEM supplemented with 10% fetal calf serum (FCS, Gibco/BRL), 1% penicillin/streptomycin at 37 °C and 5% CO2. […] For PRMT1 inhibition, cells were treated with type I PRMT inhibitor MS023 hydrochloride (Biomol). For induction of genotoxic stress, cells were treated with gemcitabine (LC Laboratories). […] The following plasmids were used: pFASTBAC-FLAG-rat PRMT1, pFASTBAC-FLAG-mouse PRMT4, and pGEX-GAR. The complete ORFs of human PRMT3 and PRMT6 were inserted into the pFASTBAC HT-3xFLAG B vector via BamHI/HindIII and BamHI/XhoI sites, respectively.
(§3) For PRMT protein expression in insect cells, recombinant baculovirus (bacmid) was generated using the Bac-to-Bac baculovirus system (Invitrogen). Sf9 cells were transfected with bacmid DNA using X-tremeGENE HP DNA transfection reagent (Sigma-Aldrich) according to the manufacturer's instructions. After 3–5 days, supernatants were collected, filtered, and used to infect Sf9 cells to amplify the virus. After 2 rounds of virus amplification and estimation of the final P3 virus titer, the P3 virus (2–5 μL/10^6 cells) was applied for large-scale infection of 200 × 10^6 Sf9 cells in suspension culture at a density of 1 × 10^6 cells/mL. Cells were harvested 5–6 days post-infection by centrifugation at 500 g for 5 min at room temperature. Protein purification from baculovirus-infected Sf9 cells was performed as previously described. , Cells were lysed in BC buffer (20 mM HEPES pH 7.9, 250 mM NaCl, 10% (v/v) glycerin, 0.4 mM EDTA, 1 mM DTT) containing a protease inhibitor cocktail (Roche) by 3 freeze-thaw cycles. After centrifugation at 11,000 rpm (Sorval SS34 rotor) and 4 °C for 1 h, the supernatant (whole cell protein extract) was incubated with anti-FLAG M2 Affinity Gel (Cytiva) at 4 °C and under agitation for 4 h. Subsequently, beads were washed in BC buffer containing various NaCl concentrations (once in BC with 1 M NaCl, twice in BC with 500 mM NaCl, twice in BC with 250 mM NaCl and twice in BC with 100 mM NaCl). FLAG-tagged proteins were either maintained bead-bound as a 50% (v/v) slurry in BC buffer with 100 mM NaCl and stored at −80 °C or were eluted in the appropriate elution buffer (depending on the subsequent assay) containing 0.25 mg/mL 3xFLAG peptides (Sigma-Aldrich) at 4 °C for 30–45 min. To remove the FLAG-peptides from the eluate, dialysis was performed in elution buffer containing 10% (v/v) glycerol at 4 °C for 4–6 h using Slide-A-Lyzer Dialysis Devices (Thermo Fisher Scientific) according to the manufacturer’s recommendations.
(§4) In the first step, the fluorogenic substrate Nα-Benzoyl-L-arginine-7-amido-4-methylcoumarin (Bz-Arg-AMC, Sigma-Aldrich) undergoes methylation by PRMTs upon the addition of the cofactor SAM. In the second reaction step, trypsin cleaves the nonmethylated substrate, leading to the generation of the 7-amino-4-methylcoumarin product, which can be quantified by subsequent fluorescence measurement (excitation: 355 nm, emission: 460 nm). The first reaction was conducted with bead-bound PRMTs at a total volume of 100 μL. Each condition was performed as a technical triplicate to determine the mean and the standard deviation. […] For the negative controls, SAM was substituted with assay buffer. The incubation was continued at 37 °C and under agitation (1,000 rpm) for a duration of 2 h.

[2] = target: T2, FLAG-tagged PRMT4 (Mus musculus, UniProt Q9WVG6); experiment: Fluorescence-based in vitro PRMT assay (F-PRMT assay), PRMT4; conditions: for Experimental result (PRMT4): vs solvent control = 100%
T2 construct: Full-length FLAG-tagged PRMT protein; made in house; host or cells: Sf9 insect cells (baculovirus)
T2 sequence (Q9WVG6 1-608): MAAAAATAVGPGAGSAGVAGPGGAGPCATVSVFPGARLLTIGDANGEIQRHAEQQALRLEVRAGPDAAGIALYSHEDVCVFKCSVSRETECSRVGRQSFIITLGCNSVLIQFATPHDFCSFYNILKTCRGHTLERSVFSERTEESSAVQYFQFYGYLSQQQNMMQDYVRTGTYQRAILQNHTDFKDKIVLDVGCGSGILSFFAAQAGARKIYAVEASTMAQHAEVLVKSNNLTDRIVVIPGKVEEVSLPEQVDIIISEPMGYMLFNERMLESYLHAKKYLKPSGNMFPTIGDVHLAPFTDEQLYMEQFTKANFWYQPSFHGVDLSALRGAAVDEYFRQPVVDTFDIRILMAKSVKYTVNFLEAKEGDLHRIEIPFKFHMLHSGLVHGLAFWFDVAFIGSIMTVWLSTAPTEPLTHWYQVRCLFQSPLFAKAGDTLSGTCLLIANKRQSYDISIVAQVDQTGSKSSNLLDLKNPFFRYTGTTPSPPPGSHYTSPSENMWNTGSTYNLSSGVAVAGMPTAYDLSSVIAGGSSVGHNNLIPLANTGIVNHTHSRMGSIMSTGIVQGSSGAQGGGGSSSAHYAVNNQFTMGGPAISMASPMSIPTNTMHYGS
Source text: as §1, §2, §3, §4

[3] = target: T3, FLAG-tagged PRMT1 (Rattus norvegicus, UniProt Q63009); experiment: Fluorescence-based in vitro PRMT assay (F-PRMT assay), PRMT1; conditions: for Experimental result (PRMT1): 2 μM PRMT, vs solvent control = 100%, racemates used
T3 construct: Full-length FLAG-tagged PRMT protein; made in house; host or cells: Sf9 insect cells (baculovirus)
T3 sequence (Q63009 whole entry): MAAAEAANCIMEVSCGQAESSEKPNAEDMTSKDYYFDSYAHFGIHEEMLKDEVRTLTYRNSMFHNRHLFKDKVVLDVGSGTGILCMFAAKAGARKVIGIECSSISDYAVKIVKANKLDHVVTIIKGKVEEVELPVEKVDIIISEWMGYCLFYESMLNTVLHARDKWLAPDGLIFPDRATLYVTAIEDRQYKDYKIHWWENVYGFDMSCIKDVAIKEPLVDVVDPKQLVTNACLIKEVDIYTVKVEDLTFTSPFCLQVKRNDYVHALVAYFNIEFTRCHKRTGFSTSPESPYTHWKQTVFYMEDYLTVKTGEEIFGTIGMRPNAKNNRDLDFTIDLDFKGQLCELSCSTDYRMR

[4] = target: T4, FLAG-tagged PRMT6 (Homo sapiens, UniProt Q96LA8); experiment: Fluorescence-based in vitro PRMT assay (F-PRMT assay), PRMT6; conditions: for Experimental result (PRMT6): vs solvent control = 100%; for Efficacy ±Δ% (PRMT6): mean % difference of activity vs solvent control (100%), - inhibition, + activation
T4 construct: The complete ORFs of human PRMT3 and PRMT6 were inserted; made in house; host or cells: Sf9 insect cells (baculovirus)
T4 sequence (Q96LA8 whole entry): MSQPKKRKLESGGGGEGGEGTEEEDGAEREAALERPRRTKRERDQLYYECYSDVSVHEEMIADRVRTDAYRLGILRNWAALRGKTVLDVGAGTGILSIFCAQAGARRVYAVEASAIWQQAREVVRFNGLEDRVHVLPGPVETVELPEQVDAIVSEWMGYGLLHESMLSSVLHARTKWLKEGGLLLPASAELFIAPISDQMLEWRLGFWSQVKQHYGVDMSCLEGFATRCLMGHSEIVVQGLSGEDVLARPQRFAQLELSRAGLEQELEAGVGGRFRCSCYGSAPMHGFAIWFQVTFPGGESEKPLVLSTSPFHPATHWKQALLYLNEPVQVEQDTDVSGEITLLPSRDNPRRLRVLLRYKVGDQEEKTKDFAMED
Summary of the method: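 Baculovirus/Sf9-expressed FLAG-PRMTs (human PRMT3, PRMT6; mouse PRMT4), anti-FLAG purified and used bead-bound, methylated Bz-Arg-AMC with SAM for 2 h at 37 °C, 1,000 rpm. Technical triplicates; no-SAM negative controls.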

[5] = Table S3, 100 µM compound, mean % difference vs solvent control (100%), n≥3
[6] = Table 1, 100 μM compound, 2 μM PRMT, n = 3, racemates used
[7] = Table 1, 100 μM compound, mean % difference of activity vs solvent control (100%), - inhibition, + activation, n = 3
[8] = Table 1, 100 μM compound, n = 3

Row | SMILES | Experimental result (PRMT6) [4, 6] | Experimental result (PRMT3) [1, 6] | Experimental result (PRMT4) [2, 6] | Experimental result (PRMT1) [3, 8] | also measured
1 | CN(C)Cc1cccc(N/C=C2\C(=O)NC(=O)c3ccccc32)c1 [TR-010] |  |  |  |  | Efficacy ±∆% (PRMT3) [1, 5]: +45%; Experimental result (PRMT4) ([2]; Table S3, 100 µM compound, n≥3): n.e. (did not significantly affect the catalytic activity (less than ±6% change or not significant p-value), are marked with n.e. (no effect)); activation at 100 µM ([3]; 100 μM compound, increase over solvent-treated activity, read-out: enhancement (increase) of PRMT1 enzymatic activity): ≥ 60%; Efficacy ±∆% (PRMT1) [3, 5]: +75%; Experimental result (PRMT6) ([4]; Table S3, 100 µM compound, n≥3): n.e. (did not significantly affect the catalytic activity (less than ±6% change or not significant p-value), are marked with n.e. (no effect))
2 | NCC(=O)Nc1ccc(NC(=O)c2ccco2)cc1 [Compound K002JS013] | PRMT6 i | PRMT3 n.e. (Compounds, which did not significantly affect the catalytic activity (less than ±6% change or not significant p-value), are marked with [drawing 8] (no effect)) | PRMT4 i | PRMT1 n.e. (Compounds, which did not significantly affect the catalytic activity (less than ±6% change or not significant p-value), are marked with [drawing 8] (no effect)) | Efficacy ±Δ% (PRMT4) [2, 7]: -50%; Efficacy ±Δ% (PRMT6) [4, 8]: -8%
3 | O=C1NC(=O)c2ccccc2/C1=C/NCc1ccccc1 [TR-03, (Z)-4-[(Benzylamino)methylene]isoquinoline-1,3(2H,4H)-dione] |  |  |  |  | Experimental result (PRMT3) ([1]; Table S3, 100 µM compound, n≥3): n.e. (did not significantly affect the catalytic activity (less than ±6% change or not significant p-value), are marked with n.e. (no effect)); Experimental result (PRMT4) ([2]; Table S3, 100 µM compound, n≥3): n.e. (did not significantly affect the catalytic activity (less than ±6% change or not significant p-value), are marked with n.e. (no effect)); effect on PRMT1 activity (in words) ([3]; 100 μM compound): slight inhibitory effect; Experimental result (PRMT6) ([4]; Table S3, 100 µM compound, n≥3): n.e. (did not significantly affect the catalytic activity (less than ±6% change or not significant p-value), are marked with n.e. (no effect))
4 | N=C(N)NCCSCc1cccc2ccccc12 [Compound K001JS010] | PRMT6 i | PRMT3 n.e. (Compounds, which did not significantly affect the catalytic activity (less than ±6% change or not significant p-value), are marked with [drawing 8] (no effect)) | PRMT4 n.e. (Compounds, which did not significantly affect the catalytic activity (less than ±6% change or not significant p-value), are marked with [drawing 8] (no effect)) | PRMT1 i | Efficacy ±Δ% (PRMT1) [3, 7]: -20%
5 | CNC[C@@H](O)COc1cccc(OC)c1 (racemic) [Compound K001JS003] | PRMT6 n.e. (Compounds, which did not significantly affect the catalytic activity (less than ±6% change or not significant p-value), are marked with [drawing 8] (no effect)) | PRMT3 n.e. (Compounds, which did not significantly affect the catalytic activity (less than ±6% change or not significant p-value), are marked with [drawing 8] (no effect)) | PRMT4 i | PRMT1 n.e. (Compounds, which did not significantly affect the catalytic activity (less than ±6% change or not significant p-value), are marked with [drawing 8] (no effect)) | 
6 | CNCc1cn(CC2CCN(c3ccc(C(C)=O)cn3)CC2)nn1 [Compound K002JS003] | PRMT6 i | PRMT3 n.e. (Compounds, which did not significantly affect the catalytic activity (less than ±6% change or not significant p-value), are marked with [drawing 8] (no effect)) | PRMT4 n.e. (Compounds, which did not significantly affect the catalytic activity (less than ±6% change or not significant p-value), are marked with [drawing 8] (no effect)) | PRMT1 n.e. (Compounds, which did not significantly affect the catalytic activity (less than ±6% change or not significant p-value), are marked with [drawing 8] (no effect)) | 
7 | O=C(CC1COCCN1)N1CCC(N2CCc3ccccc3C2)CC1 (stereo not drawn) [Compound K002JS014] | PRMT6 i | PRMT3 n.e. (Compounds, which did not significantly affect the catalytic activity (less than ±6% change or not significant p-value), are marked with [drawing 8] (no effect)) | PRMT4 n.e. (Compounds, which did not significantly affect the catalytic activity (less than ±6% change or not significant p-value), are marked with [drawing 8] (no effect)) | PRMT1 n.e. (Compounds, which did not significantly affect the catalytic activity (less than ±6% change or not significant p-value), are marked with [drawing 8] (no effect)) | Efficacy ±Δ% (PRMT6) [4, 8]: -8%
